Reference: patent US20130064815A1, “INDUCING APOPTOSIS IN QUIESCENT CELLS” (THE TRUSTEES OF PRINCETON UNIVERSITY, priority 2011, published 2013)
Entries after “also recorded” stand apart in the source; their conditions may differ.

Tests used:
[1] = test system: extracellular glutathione; experiment: glutathione in conditioned medium by mass spectrometry; format: cell-based, human; conditions: 7 dSS fibroblasts; DHEA vs DMSO control
Excerpt: It was expected that the reduction in NADPH levels that resulted from DHEA treatment would result in lower activity of glutathione reductase and thus a decrease in the levels of reduced glutathione. […] The depletion of glutathione in response to DHEA could be an important part of the apoptotic pathway. Alternatively, because apoptosing cells can rapidly and selectively release glutathione to the extracellular environment (van den Dobbelsteen et al., 1996, “Rapid and specific efflux of reduced glutathione during apoptosis induced by anti-Fas/APO-1 antibody,” J Biol Chem 271, 15240-15427; Franco et al., “Glutathione depletion is necessary for apoptosis in lymphoid cells independent of reactive oxygen species,” J Biol Chem 282, 30452-30465, 2007, which are incorporated herein by reference as if fully set forth), the depletion of glutathione could represent a response to a distinct apoptotic trigger. Mass spectrometry was used to measure glutathione levels in conditioned medium from 7 dSS fibroblasts treated with DMSO as a control or with DHEA. There was no increase in extracellular glutathione in conditioned medium from DHEA-treated fibroblasts compared with controls; in fact, levels were lower, consistent with a DHEA-induced reduction in intracellular levels of reduced glutathione. […]

[2] = test system: primary human fibroblasts; experiment: caspase 3/7 activity apoptosis assay (ApoTox-Glo) in proliferating and quiescent fibroblasts; format: cell-based; conditions: for apoptosis-inducing effect (caspase-3/7 activity normalized to vehicle): four days treatment
Method: Referring to FIG. 2A, primary human fibroblasts were tested either in a proliferating state or after being induced into quiescence. Quiescence may be induced by either contact inhibition or serum starvation. Cells were treated with DHEA for four days, with bafilomycin added on the fourth day. Apoptosis was assessed based on the activity of caspase 3/7 for a fluorogenic substrate.
PPP inhibition and apoptosis analysis: Apoptosis was measured based on the levels of caspase 3/7 released into the media using the ApoTox-Glo Triplex Assay according to the manufacturer's instructions (Promega Corp., Madison, Wis.). Cells were plated in triplicate at 10,000 cells per well in white-walled, clear-bottom 96-well plates (Costar, Corning Life Sciences, Lowell, Mass.). For contact inhibition, cells were plated 7 days prior to the start of treatment, for serum starvation cells were plated 4 days prior to treatment and switched to 0.1% serum media for the remaining 3 days, while proliferating cells were plated the day prior to the start of treatment. […] Cells in serum starvation conditions were incubated in 0.1% serum during treatment as well. The apoptosis reagent was added at 100 μl per well and incubated for 1 h prior to reading. Luminescence was read from the top using a Synergy-2 plate reader (Biotek, Winooski, Vt.). Luminescence data were normalized to the vehicle only condition.
Apoptosis induction was assessed by monitoring caspase 3/7 activity using a luminescent caspase substrate. This assay is optimized for high-throughput screening in 96-well plates and allows multiple concentrations and combination of drugs to be tested in triplicate at different time points. […] Therefore, this assay was used to compare proliferating and serum-starved cells only.

[3] = test system: low-grade cervical lesions; conditions: 12 women with low-grade dysplasia; intravaginal; cited from earlier work
[4] = test system: spontaneous breast cancer; conditions: long-term treatment; female C3H (Avy/a) mice; cited from earlier work
thyroid tumors = conditions: F344 rats treated with DHPN, then DHEA; cited from earlier work
[5] = test system: intracellular reduced glutathione; experiment: intracellular reduced glutathione by monochlorobimane flow cytometry; format: cell-based, human; conditions: serum-starved fibroblasts after DHEA treatment
Method: It was tested whether the increase in glutathione reductase activity in serum-starved fibroblasts was associated with elevated levels of reduced glutathione. 7 dSS fibroblasts were focused on because they had the highest activity of the four enzymes in the NADPH production pathway. Flow cytometry was used to monitor the levels of glutathione in proliferating and 7 dSS fibroblasts with monochlorobimane (MCB), a compound that forms blue fluorescent adducts when it reacts with intracellular reduced glutathione (Sebastia et al., “Evaluation of fluorescent dyes for measuring intracellular glutathione content in primary cultures of human neurons and beuroblastoma SH-SY5Y, Cytometry A 51, 16-25, 2003, which is incorporated herein by reference as if fully set forth). […] The results are consistent with a model in which the NADPH production program activated in the serum-starved fibroblasts contributes to a larger pool of reduced glutathione.
It was expected that the reduction in NADPH levels that resulted from DHEA treatment would result in lower activity of glutathione reductase and thus a decrease in the levels of reduced glutathione. […] The depletion of glutathione in response to DHEA could be an important part of the apoptotic pathway. […]

[6] = test system: four day serum starved fibroblasts; experiment: induction of apoptosis in quiescent fibroblasts by DHEA and/or autophagy inhibitor combined with proteasome inhibitors; format: cell-based, human; conditions: DHEA alone; 48 hour treatment
Method: Referring to FIG. 17, the effect of treatment using DHEA and/or an autophagy inhibitor combined with proteasome inhibitors on apoptosis in quiescent cells was analyzed.
In this experiment, the proteasome inhibitor, bortezomib, was used in varying concentrations with DHEA during a 48 hour treatment.

In the case of `C[C@]12CC[C@H](O)CC1=CC[C@@H]1[C@@H]2CC[C@]2(C)C(=O)CC[C@@H]12` [DHEA, dehydroepiandrosterone], the “extracellular glutathione in conditioned medium” value [1] is reported as “no increase”, the “apoptosis-inducing effect (caspase-3/7 activity normalized to vehicle)” value ([2]; fibroblasts confluent 11 days (CI11) vs proliferating) is reported as “significantly stronger; also recorded: statistically significantly different at all doses except 100 μM” and the “apoptosis-inducing effect (caspase-3/7 activity normalized to vehicle)” value ([2]; fibroblasts serum-starved seven days (SS7) vs proliferating) is reported as “yet stronger; also recorded: particularly sensitive; also recorded: statistically significantly different at all doses”. For the same compound, the caspase induction ([2]; treatment with DHEA alone) was 6- to 8 fold, the “regression of low-grade cervical lesions” value [3] was “may promote regression of low-grade cervical lesions” and the safety [3] was “safe to administer”. The “spontaneous breast cancer occurrence” value [4] was “inhibit spontaneous breast cancer occurrence”, the basophilic hepatocellular foci (thyroid tumors) was “associated with development of basophilic hepatocellular foci” and the “development of thyroid tumors” value (thyroid tumors) was “decreased development of thyroid tumors”. For the same compound, the “intracellular GSH pools” value [5] was “smaller pools of intracellular GSH” and the “increase in apoptosis induction” value [6] was about 2 fold.
